{"source": "paper PMC5513091", "about": "“A novel Alzheimer’s disease drug candidate targeting inflammation and fatty acid metabolism” (Alzheimer's Research & Therapy, 2017)", "key": {"[1]": {"system": "HT22 cells expressing the brain-derived neurotrophic factor (BDNF) receptor transmembrane receptor kinase B", "assay": "BDNF-like activity (rescue from serum starvation)", "format": "cell-based", "settings": "Mus musculus, HT-22, read-out: Half-maximal effective concentration, BDNF-like activity", "protocol": "(§1) The various phenotypic screening assays were conducted as previously described. Briefly, HT-22, primary cortical neurons, or MC65 was plated and exposed to the different environmental stresses. Cells were treated with varying concentrations of CAD-31, and half-maximal effective concentration (EC50) was determined on the basis of cell viability.\n• An assay that mimics the dramatic loss of neurotrophic support in the old brain is the trophic factor withdrawal assay. Primary embryonic day 18 cortical cells are plated at low density in serum-free medium. At low density, the cells die within 2 days; they can be rescued by combinations of neurotrophic growth factors, but not by one alone ([19] and unpublished data). […] BDNF is a molecule that is also involved in promoting memory and neurogenesis and is reduced in the brain with age and in AD, as well as in other neurological disorders. BDNF has long been considered a drug target for AD [23]. […] A reduction in GSH is a common denominator of old age and essentially all chronic central nervous system (CNS) diseases. J147 and CAD-31 both effectively reduce oxidative stress, with EC50 of 6 nM and 20 nM, respectively. • CAD-31 also prevents loss of energy metabolism that leads to neuron cell death in an in vitro ischemia model. […]"}, "MC65": {"system": "MC65", "assay": "Aβ toxicity (intracellular)", "format": "cell-based, human", "settings": "read-out: Half-maximal effective concentration, Aβ toxicity (intracellular)", "protocol": "as §1\n• An assay that mimics the dramatic loss of neurotrophic support in the old brain is the trophic factor withdrawal assay. Primary embryonic day 18 cortical cells are plated at low density in serum-free medium. At low density, the cells die within 2 days; they can be rescued by combinations of neurotrophic growth factors, but not by one alone ([19] and unpublished data). […] BDNF is a molecule that is also involved in promoting memory and neurogenesis and is reduced in the brain with age and in AD, as well as in other neurological disorders. BDNF has long been considered a drug target for AD [23]. […] A reduction in GSH is a common denominator of old age and essentially all chronic central nervous system (CNS) diseases. J147 and CAD-31 both effectively reduce oxidative stress, with EC50 of 6 nM and 20 nM, respectively. • CAD-31 also prevents loss of energy metabolism that leads to neuron cell death in an in vitro ischemia model. […] Intracellular Aβ toxicity was assayed in the human neuron cell line MC65 that conditionally expresses the C99 fragment of the amyloid precursor protein. When the cells are induced to make Aβ, the cells die within 4 days. Both J147 and CAD-31 block this toxicity at around 10 nM. Therefore, CAD-31 has a repertoire of neuroprotective activities similar but not identical to that of its parent compound, J147."}, "Aβ1–42": {"target": "Aβ1–42 (Homo sapiens, UniProt P05067)", "sequence (P05067 672-713 limits assumed)": "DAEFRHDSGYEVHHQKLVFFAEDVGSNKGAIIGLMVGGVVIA", "assay": "Thioflavin S Aβ1–42 aggregation assay", "format": "biochemical", "settings": "data not shown"}, "Caco 2": {"system": "Caco 2", "assay": "Caco 2 Transport", "format": "in vitro ADME"}, "[2]": {"assay": "Body weights and food consumption during feeding study", "format": "in vivo, mice", "settings": "200 ppm in diet for 3 months, measured weekly; data not shown", "protocol": "The APPswe/PS1∆E9-transgenic mice were characterized previously. Line 85 mice carry two transgenes, the mouse/human chimeric APPswe, linked to Swedish familial AD and human PS1∆E9. At 10 months of age, female transgenic mice were fed a defined diet (Harlan Teklad; Envigo, Indianapolis, IN, USA) with and without CAD-31 (200 ppm, approximately 10 mg/kg/day). Treatment continued for 3 months, followed by behavior testing and tissue harvesting."}, "AMPK phosphorylation": {"system": "AMPK phosphorylation", "assay": "Immunoblotting of hippocampal tissue", "format": "in vivo", "settings": "hippocampus, WT and old AD mice, 200 ppm in chow 3 months", "protocol": "(§2) Hippocampal tissue samples were homogenized in 10 volumes of radioimmunoprecipitation assay (RIPA) lysis buffer (50 mM Tris, pH 7.5, 150 mM NaCl, 0.1% SDS, 0.5% deoxycholate, and 1% Nonidet P-40) containing a cocktail of protease and phosphatase inhibitors [[…] each of pepstatin A, aprotinin, phosphoramidon, and leupeptin; 0.5 mM 4-(2-aminoethyl)benzenesulfonyl fluoride hydrochloride; 1 mM ethylene glycol-bis(β-aminoethyl ether)-N,N,N′,N′-tetraacetic acid; 5 mM fenvalerate; and 5 mM cantharidin]. Samples were sonicated (2 × 10 seconds) and centrifuged first at 10,000 × g for 10 minutes and then at 100,000 × g for 60 minutes at 4 °C. The 100,000 × g pellet was taken up either in 6 M guanidine for Aβ analysis or in SDS sample buffer for Western blot analysis. Protein concentrations in the cell extracts were determined using a bicinchoninic acid protein assay (Pierce Biotechnology, Rockford, IL, USA). Equal amounts of protein were solubilized in 2.5× SDS sample buffer, separated on 12% SDS-polyacrylamide gels, transferred to Immobilon-P (EMD Millipore, Billerica, MA, USA), and immunoblotted with the antibodies indicated in the Materials subsection above. For Western blot experiments, protein levels were normalized to actin levels. An unpaired t test was performed to compare two groups at a single time point. When comparing multiple groups, one-way analysis of variance (ANOVA) followed by Tukey’s post hoc test was used. All statistical analysis was conducted using GraphPad InStat software."}, "Arc-1": {"system": "Arc-1", "assay": "Immunoblotting of hippocampal tissue", "format": "in vivo", "settings": "hippocampus, AD mice fed CAD-31 vs AD mice not fed", "protocol": "as §2"}, "Drebrin": {"system": "Drebrin", "assay": "Immunoblotting of hippocampal tissue", "format": "in vivo", "settings": "hippocampus, AD mice fed CAD-31 vs AD mice not fed", "protocol": "as §2"}, "OSCP": {"system": "OSCP", "assay": "Immunoblotting of hippocampal tissue", "format": "in vivo", "settings": "hippocampus, control and AD mice", "protocol": "as §2"}, "RAGE": {"system": "RAGE", "assay": "Immunoblotting of hippocampal tissue", "format": "in vivo", "settings": "hippocampus, AD mice", "protocol": "as §2"}, "VCAM": {"system": "VCAM", "assay": "Immunoblotting of hippocampal tissue", "format": "in vivo", "settings": "hippocampus, AD mice", "protocol": "as §2"}, "clusterin": {"system": "clusterin", "assay": "Immunoblotting of hippocampal tissue", "format": "in vivo", "settings": "hippocampus, AD mice", "protocol": "as §2"}, "eIF2α phosphorylation": {"system": "eIF2α phosphorylation", "assay": "Immunoblotting of hippocampal tissue", "format": "in vivo", "settings": "hippocampus, WT and old AD mice, 200 ppm in chow 3 months", "protocol": "as §2"}, "ACC-1": {"system": "ACC-1", "assay": "Immunoblotting of hippocampal tissue", "format": "in vivo, mice", "settings": "hippocampus", "protocol": "as §2"}, "DCX": {"system": "DCX", "assay": "Immunoblotting of hippocampal tissue", "format": "in vivo, mice", "settings": "hippocampus", "protocol": "as §2"}, "[3]": {"system": "autophagy markers LC3 and P62", "assay": "Immunoblotting of hippocampal tissue", "format": "in vivo, mice", "settings": "data not shown", "protocol": "as §2"}, "ubiquitinated proteins": {"system": "ubiquitinated proteins", "assay": "Immunoblotting of hippocampal tissue", "format": "in vivo, mice", "settings": "hippocampus", "protocol": "as §2"}, "Aβ plaque": {"system": "Aβ plaque", "parameters": "method as in PMID 27149904", "settings": "early study; cited from earlier work"}}, "note": "Like-named read-outs stand apart in the source and are kept apart here."}
{"smiles": "Cc1ccc(N(/N=C/c2cccc(OC(F)(F)F)c2)C(=O)C(F)(F)F)c(C)c1", "note": "[CAD-31]", "values": [{"measurement": "EC50", "setting": "[1]", "value": 0.095, "unit": "µM"}, {"measurement": "EC50", "setting": "MC65; Homo sapiens, MC65, MC65", "value": "~0.01", "unit": "µM"}, {"measurement": "EC50", "setting": "MC65; MC65", "value": 0.012, "unit": "µM"}, {"measurement": "binding to and direct inhibition of Aβ1–42 aggregation", "setting": "Aβ1–42", "value": "Neither J147 nor CAD-31 binds to and directly inhibits Aβ1–42 aggregation"}, {"measurement": "EC50 at 10 µM", "setting": "Ames test", "value": "> 10", "unit": "µM"}, {"measurement": "activity in the Ames test", "setting": "Ames test; 10 μM", "value": "showed no sign of acute toxicity or activity"}, {"measurement": "EC50 at 10 µM", "setting": "Micronucleus assay", "value": "> 10", "unit": "µM"}, {"measurement": "activity in the micronucleus assay", "setting": "Micronucleus assay; 10 μM", "value": "showed no sign of acute toxicity or activity"}, {"measurement": "Caco 2 Transport", "setting": "Caco 2", "value": "High"}, {"measurement": "body weights and food consumption", "setting": "[2]", "value": "no significant differences between the groups"}, {"measurement": "AMPK activation by phosphorylation (ratio to total AMPK)", "setting": "AMPK phosphorylation", "value": "enhanced"}, {"measurement": "Arc-1 expression", "setting": "Arc-1", "value": "increased expression of both proteins"}, {"measurement": "Drebrin expression", "setting": "Drebrin", "value": "increased expression of both proteins"}, {"measurement": "OSCP expression", "setting": "OSCP", "value": "increased expression of OSCP in both control and AD mice"}, {"measurement": "RAGE expression", "setting": "RAGE", "value": "reduced the expression"}, {"measurement": "VCAM expression", "setting": "VCAM", "value": "reduced the expression"}, {"measurement": "clusterin expression", "setting": "clusterin", "value": "reduced the expression"}, {"measurement": "eIF2α phosphorylation (ratio to total eIF2α)", "setting": "eIF2α phosphorylation", "value": "stimulates eIF2α phosphorylation in both WT and old AD mice"}, {"measurement": "phosphorylation of ACC-1", "setting": "ACC-1; AD mice", "value": "greatly increases the depressed level of phosphorylation in AD mice"}, {"measurement": "total amount of ACC-1 protein", "setting": "ACC-1; AD mice", "value": "not significantly reduced"}, {"measurement": "phosphorylation of ACC-1", "setting": "ACC-1; WT mice", "value": "decreases the phosphorylation of ACC-1 in WT mice"}, {"measurement": "expression of the NPC marker DCX", "setting": "DCX", "value": "increased the expression of the NPC marker DCX in the hippocampus"}, {"measurement": "expression of the autophagy markers LC3 and P62", "setting": "[3]", "value": "did not, however, alter the expression"}, {"measurement": "RIPA-insoluble ubiquitinated proteins", "setting": "ubiquitinated proteins; 13-month-old WT and AD mice", "value": "reduced"}, {"measurement": "ubiquitinated proteins in the soluble fraction", "setting": "ubiquitinated proteins; data not shown", "value": "unchanged"}, {"measurement": "Aβ plaque density or size", "setting": "Aβ plaque", "value": "no effect on Aβ plaque density or size"}]}
